Results on seven molecules are retold here after patent publication US12485127B2, “Compositions and methods for treatment and prevention of actinic keratosis using copper chlorin” (CHL Industries, LLC, priority 2024, dated 2025).

For data set [1], the system named is Human neonatal epidermal keratinocytes (HEKn). The data set is described as follows: Transcriptome study (Clariom S) of gene regulation in keratinocytes. The class given is cell-based. The following applies: 20 ug/mL; 24-hour exposure; versus water control. How it is done:
The transcriptome study of copper chlorins was conducted by Sunny Biodiscovery laboratory and Thermo-Fisher Scientific Microarray Research Services Laboratory, both of Santa Clara, California to determine gene regulatory activity and biomarkers associated with activity of the copper chlorins on human skin by assessing gene expression from keratinocyte culture after 24-hour exposure of each of the copper chlorins as previously detailed in U.S. Provisional Application Ser. No. 63/233,229 (filed on Aug. 14, 2021).
Human neonatal epidermal keratinocytes (HEKn) were obtained from Cell Applications 5 (San Diego, CA) and were plated in a 96 well plate (Bioland Scientific, Paramount, CA, item #701003 made of high clarity polystyrene) with keratinocyte growth media (Human EpiVita Serum-Free Growth Medium for Neonatal Cells; Cell Applications, San Diego, CA). Cells were mixed with growth media at a rate of 10,000 cells per 200 μl (approximately 10^4 cells per well) and added to the 96 wells (0.2 mL/well) and incubated overnight at 37° C.
Following the overnight incubation of keratinocytes, each of the 4 copper chlorins evaluated was separately dissolved in sterile distilled water at a concentration of 20 mg/mL. Dissolution occurs at 20-25° C. with slight agitation for 1-2 minutes until no solid particles were visible. This stock solution of 20 mg/mL was then further diluted with sterile water to a concentration of 500 μg/mL. The 500 μg/mL solution of each test copper chlorin was added to the cells in the growth media at a ratio of 1:20 (test solution: cells & media) and incubated in the wells for 24 hours at 37° C.
The following day the test solution and growth media were removed from the wells and the cells were rinsed with phosphate-buffered saline (PBS). The RNA from the cells treated with each of the test compounds was extracted and purified with a RNeasy Mini Plus Kit (Catalogue #74134; Qiagen, Germantown, MD) with automated lysing and homogenization using a Qiacube Connect robotic station (Qiagen, Germantown, MD). The protocol for RNA extraction is selected on the Qiacube Connect automated station and cell samples, labware, and reagents are loaded as instructed. Cells are first lysed and homogenized in highly denaturing guanidine-isothiocyanate-containing Buffer RLT Plus, which immediately inactivates RNases to ensure isolation of intact RNA. The lysate is passed through Qiacube Connect loaded gDNA Eliminator spin columns, 15 ethanol is added to the flow-through, and the samples are then applied to Qiacube preloaded RNeasy MinElute spin columns. RNA binds to the membrane and contaminants are washed away. High quality RNA is eluted and collected in a total of 30 μL sterile distilled water.
The stepwise procedure for production of RNA using RNeasy Plus procedure is outlined FIG. 4. Once collected, the purity of the RNA is assessed with the NanoDrop Lite spectrophotometer (Thermo Fisher Scientific, Waltham, MA) at 260 nm and 280 nm. The NanoDrop Lite unit is a small, stand-alone UV spectrophotometer that is designed 5 to measure microvolumes (1-2 μL) of nucleic acid and protein samples. Purity of the collected RNA was verified by adding 1 μL of the collected RNA to the NanoDrop Lite unit, selecting the RNA application on the NanoDrop Lite Home screen and following the stepwise measuring procedure as detailed in the NanoDrop Lite Manual.
The extracted RNA for each of the four treatment compositions evaluated from the above procedure was then transported on dry ice to a laboratory specializing in transcriptome analysis (Thermo Fisher Scientific Microarray Research Services Laboratory, Santa Clara, CA). The transcriptome profiling of the RNA samples was conducted using the Clariom S GeneChip® Pico Assay platform. […]

In data set [2] the test system is HPV-18 (strain: KC470230.1). The data set is described as follows: HPV-18 genome plasmid replication assay in C-33 A cells. The class given is cell-based, human papillomavirus. The following applies: for EC50 / EC90: host cell line C-33A. How it is done:
(§1) The in vitro testing of the chlorin compounds and the positive control for antiviral cytopathic effect (CPE) was conducted through The National Institute of Allergy and Infectious Diseases (NIAID) NCEA Program. The in vitro testing was done by the method described by Beadle J R, Valiaeva N, Yang G, Yu J H, Broker T R, Aldern K A, et al. Synthesis and Antiviral Evaluation of Octadecyloxyethyl Benzyl 9-[(2-Phosphonomethoxy)ethyl]guanine (ODE-Bn-PMEG), a Potent Inhibitor of Transient HPV DNA Amplification. J Med Chem. 2016; 59(23):10470-8. PubMed PMID: 27933957. This method uses an HPV-11 replicon assay. The replicon (pMP619) is transfected into C-33 A cells grown as monolayers in 384-well plates. At 48 hours post transfection, the enzymatic activity of the destabilized NanoLuc reporter is assessed with NanoGlo reagent. […] The host C-33 A cells are epithelial cells originally isolated from the cervix of a uterine cancer patient. For reasons previously mentioned in this application, in vitro testing of compounds for potential antiviral activity against HPV strains cannot use human keratinocytes as the host cells due to the variable HPV replication activity with this cell line.
(§2) The EC50 (or Effective Concentration 50) is the concentration of the test compound in micromoles that reduces virus replication by 50%. The EC90 (or Effective Concentration 90) is the concentration of the test compound in micromoles that reduces virus replication by 90%. CC50 (or Cytotoxic Concentration 50) is the concentration of the test compound in micromoles that reduces the cell viability of the virus host cell by 50%. The SI50 (or Selectivity Index 50) is a measure of both safety and efficacy or therapeutic index and is calculated by dividing the CC50 by the EC50. The SI90 (Selectivity Index 90) is calculated by dividing the CC50 by the EC90.
(§3) The in vitro test method used to assess activity of copper chlorins according to embodiments herein against HPV-18 and HPV-31 used the same replication and quantification method described previously for Table 1 results but with HPV-18 and HPV-31 genome plasmids. Results of the in vitro testing of three of the same copper chlorins as used in Table 1, as well as the same control, against HPV 18 and HPV 31 are summarized in Table 2 and Table 3 below.

For data set [3], the system named is HPV-11 (HE611260.1 strain). The data set is described as follows: HPV-11 replicon assay (NanoLuc reporter) in C-33 A cells. The class given is cell-based, human papillomavirus. The following applies: for EC90 / EC50: host cell line C-33A; for EC50: 48 hours post transfection. How it is done:
as §1
The control compound, PMEG, has a molecular weight of 289.188 g/mol. The molecular weight of the copper chlorin compounds evaluated are (1) 661.5 g/mol for disodium copper isochlorin e4; (2) 710.5 g/mol for trisodium copper chlorin p6; (3) 724.15 g/mol for trisodium copper chlorin e6; and (4) 740 g/mol for trisodium copper rhodin g7. The antiviral test results in Table 1 for each treatment composition and the control are reported in micromoles (uM) for the EC50, EC90, and CC50. The SI 50 and SI 90 are calculated from the EC50, EC90, and CC50 data.
as §2
For orientation: Replicon systems follow genome replication, usually without infectious particles.

The subject of data set [4] is HPV-31 (strain: HQ53768.1). Nature of the data set: HPV-31 genome plasmid replication assay in C-33 A cells. The class given is cell-based, human papillomavirus. The following applies: for EC50 / EC90: host cell line C-33A. How it is done: as §1, §2, §3
The subject of the next data set is actinic keratosis. The settings on record: cited from earlier work.
The subject of another data set is C-33 A cells. The data set is described as follows: Cytotoxicity to virus host cell (CC50). The class given is cell-based, human.
For data set [5], the system named is HPV-11 (HE611260.1 strain). The following applies: HPV-11 replicon assay; reference range; read-out: EC50 value range of the reference compound for this assay; cited from earlier work.
Data set [6] in a line: Cytotoxicity to virus host cell (CC50). The class given is cell-based, human. The following applies: human, C-33A host cells.

Like-named read-outs stand apart in the source and are kept apart here. Where only a bound is given, the exact number is not on record here.

The term EC50 denotes the concentration that produces a half-maximal response. The term EC90 denotes the point of the concentration-response curve where the effect stands at 90%. A high value points to a need for much substance. Consider `C=Cc1c(C)c2cc3nc(c(CC(=O)[O-])c4[n-]c(cc5nc(cc1[n-]2)C(C)=C5CC)c(C)c4C(=O)[O-])C(CCC(=O)[O-])C3C.[Cu+2].[Na+].[Na+].[Na+]` (centres unmarked) [Trisodium copper chlorin e6], for which, in data set [1], the “CDKN1A cyclin-dependent kinase inhibitor 1A (p21, Cip1) gene regulation (keratinocytes)” value is on record as “+2.22 fold”; the “CYB561 Cytochrome b561 gene regulation (keratinocytes)” value is recorded as −2.28 fold; the “EPGN Epithelial mitogen gene regulation (keratinocytes)” value is −2.56 fold; the “MAPK14 Mitogen-activated protein kinase 14 gene regulation (keratinocytes)” value is given as −2.23 fold. Besides, in data set [2], a half-maximal response (EC50) required 1.42 µM and the EC90 amounted to 2.97 µM. In data set [3] (converted with molecular weight 724.15), the “EC50 converted from micromoles” value is 1.998 µg/mL. In data set [3], this molecule had an EC90 of 24.9 µM and an EC50 of 2.76 µM. In data set [4], the “antiviral activity classification based on SI50” value is on record as “moderately active (SI50=10−49, moderately active)”; a half-maximal response (EC50) required 1.75 µM; it took 3.8 µM to reach the 90% level (EC90).

For Disodium copper isochlorin e4, in data set [1], the “CDKN1A cyclin-dependent kinase inhibitor 1A (p21, Cip1) gene regulation (keratinocytes)” value is “+2.46 fold”; the “EPGN Epithelial mitogen gene regulation (keratinocytes)” value is recorded as −3.17 fold; the “KDM7A lysine (K)-specific demethylase 7A gene regulation (keratinocytes)” value is “+2.62 fold”; the “UNC5B Unc-5 netrin receptor B gene regulation (keratinocytes)” value is “+8.06 fold”. In data set [2], a half-maximal response (EC50) required 3.2 µM and the EC90 was 6.09 µM. Besides, in data set [3], it took 20.6 µM to reach the 90% level (EC90) and the midpoint of the response, the EC50, lay at 4.63 µM. In data set [4], this molecule gave an EC50 of 0.25 µM and an EC90 of 4.45 µM.

With `O=C(O)Cc1ccccc1Nc1c(Cl)cccc1Cl` [diclofenac], in the data set with actinic keratosis (after 12 months from initial treatments), the AK recurrence rate was 85%.

What is called CC50 is the concentration at which the toxic effect on the cells reaches its halfway point. A high value points to better tolerance by the cells. In the case of `C=Cc1c(C)c2cc3nc(c(C(=O)[O-])c4[n-]c(cc5nc(cc1[n-]2)C(C)=C5CC)c(C)c4C(=O)[O-])C(CCC(=O)[O-])C3C.[Cu+2].[Na+].[Na+].[Na+]` (centres unmarked) [Trisodium copper chlorin p6], in data set [1], the “KDM7A lysine (K)-specific demethylase 7A gene regulation (keratinocytes)” value is recorded as “+2.38 fold” and the “UNC5B Unc-5 netrin receptor B gene regulation (keratinocytes)” value was “+3.59 fold”. Besides, in data set [3], the 90% effect level (EC90) was put at 23.6 µM and the response was half-maximal at 5.51 µM (EC50). Also, in the data set on C-33 A cells, the CC50 turned out to be 58.4 µM.

Consider Trisodium copper rhodin g7, for which, in data set [2], the “antiviral activity classification based on SI50” value is listed as “highly active (SI50>50 highly active)”, the EC50 worked out at 1.19 µM and it took 2.62 µM to reach the 90% level (EC90). For the same molecule, in data set [3], the EC90 was 58.8 µM and it took 4.48 µM to reach a half-maximal effect (EC50). Moreover, in data set [4], a half-maximal response (EC50) required 0.36 µM and the EC90 is 1.62 µM.

With `O=C(Cc1ccc(-c2ccc(OCCN3CCOCC3)cc2)cn1)NCc1ccccc1` [turbanibulin], in the data set on actinic keratosis (after one year, estimated), the sustained complete clearance was about 27%. The Initial complete clearance with actinic keratosis (trial 1 vs trial 2) is recorded as 44-54%.

Regarding `Nc1nc2c(ncn2CCOCP(=O)(O)O)c(=O)[nH]1` [9-[2-(phosphono-methoxy)-ethyl]guanine, reference compound], the EC50 was 2.33 µM in data set [2] (Human papillomavirus), 2.27 µM in data set [3] (Human papillomavirus), 2 to 9.2 µM in data set [5] and 3.92 µM in data set [4] (Human papillomavirus). The EC90 in data set [2] (Human papillomavirus) was 21.3 µM; in data set [3] (Human papillomavirus), over 150 µM; in data set [4] (Human papillomavirus), 18.4 µM. For the same molecule, the 50% cytotoxic concentration (CC50) in data set [6] (HPV-11 test (Table 1)) is over 150 µM; in data set [6] (HPV-18 test (Table 2)), over 250 µM; in data set [6] (HPV-31 test (Table 3)), over 250 µM.
